From ChEMBL document CHEMBL1800013, “Small molecule inhibitors of SHP2 tyrosine phosphatase discovered by virtual screening” (Bioorg Med Chem Lett, 2011) come the findings set out here.

Active and inactive are the calls of the source. No cut-off for these calls is given here.

The nature of experiment [1]: Inhibition of Cdc14 at 100 uM.
Experiment [2] has as its target T1, Low molecular weight phosphotyrosine protein phosphatase (Homo sapiens, UniProt P24666).
T1 sequence (P24666 whole entry): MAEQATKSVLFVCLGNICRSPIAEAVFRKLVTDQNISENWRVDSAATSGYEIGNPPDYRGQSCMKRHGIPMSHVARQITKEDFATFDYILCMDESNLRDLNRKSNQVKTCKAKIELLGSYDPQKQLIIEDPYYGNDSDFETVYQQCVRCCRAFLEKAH
The experiment is described as follows: Inhibition of LMW-PTP.

The target of experiment [3] is Tyrosine-protein phosphatase non-receptor type 6 (Homo sapiens, UniProt P29350). Put plainly: Inhibition of SHP1.
Tyrosine-protein phosphatase non-receptor type 6, sequence (P29350 whole entry): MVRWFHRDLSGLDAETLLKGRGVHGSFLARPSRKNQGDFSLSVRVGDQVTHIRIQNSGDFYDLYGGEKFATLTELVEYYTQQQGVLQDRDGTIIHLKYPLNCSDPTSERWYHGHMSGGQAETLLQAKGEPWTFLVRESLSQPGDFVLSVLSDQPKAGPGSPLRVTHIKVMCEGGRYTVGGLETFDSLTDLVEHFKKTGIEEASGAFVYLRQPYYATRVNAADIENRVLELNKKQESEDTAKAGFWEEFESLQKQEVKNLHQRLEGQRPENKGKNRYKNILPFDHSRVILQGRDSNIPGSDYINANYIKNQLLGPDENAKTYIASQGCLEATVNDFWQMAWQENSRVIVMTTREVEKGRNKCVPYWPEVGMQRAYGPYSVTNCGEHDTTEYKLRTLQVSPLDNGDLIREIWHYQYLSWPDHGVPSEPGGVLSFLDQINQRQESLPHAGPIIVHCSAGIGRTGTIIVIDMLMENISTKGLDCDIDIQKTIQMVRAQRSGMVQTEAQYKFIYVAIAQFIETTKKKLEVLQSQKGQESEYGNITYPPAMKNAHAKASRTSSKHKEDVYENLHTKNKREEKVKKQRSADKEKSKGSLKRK
Experiment [4] has as its target T2, Receptor-type tyrosine-protein phosphatase C (Homo sapiens, UniProt P08575).
T2 sequence (P08575 whole entry): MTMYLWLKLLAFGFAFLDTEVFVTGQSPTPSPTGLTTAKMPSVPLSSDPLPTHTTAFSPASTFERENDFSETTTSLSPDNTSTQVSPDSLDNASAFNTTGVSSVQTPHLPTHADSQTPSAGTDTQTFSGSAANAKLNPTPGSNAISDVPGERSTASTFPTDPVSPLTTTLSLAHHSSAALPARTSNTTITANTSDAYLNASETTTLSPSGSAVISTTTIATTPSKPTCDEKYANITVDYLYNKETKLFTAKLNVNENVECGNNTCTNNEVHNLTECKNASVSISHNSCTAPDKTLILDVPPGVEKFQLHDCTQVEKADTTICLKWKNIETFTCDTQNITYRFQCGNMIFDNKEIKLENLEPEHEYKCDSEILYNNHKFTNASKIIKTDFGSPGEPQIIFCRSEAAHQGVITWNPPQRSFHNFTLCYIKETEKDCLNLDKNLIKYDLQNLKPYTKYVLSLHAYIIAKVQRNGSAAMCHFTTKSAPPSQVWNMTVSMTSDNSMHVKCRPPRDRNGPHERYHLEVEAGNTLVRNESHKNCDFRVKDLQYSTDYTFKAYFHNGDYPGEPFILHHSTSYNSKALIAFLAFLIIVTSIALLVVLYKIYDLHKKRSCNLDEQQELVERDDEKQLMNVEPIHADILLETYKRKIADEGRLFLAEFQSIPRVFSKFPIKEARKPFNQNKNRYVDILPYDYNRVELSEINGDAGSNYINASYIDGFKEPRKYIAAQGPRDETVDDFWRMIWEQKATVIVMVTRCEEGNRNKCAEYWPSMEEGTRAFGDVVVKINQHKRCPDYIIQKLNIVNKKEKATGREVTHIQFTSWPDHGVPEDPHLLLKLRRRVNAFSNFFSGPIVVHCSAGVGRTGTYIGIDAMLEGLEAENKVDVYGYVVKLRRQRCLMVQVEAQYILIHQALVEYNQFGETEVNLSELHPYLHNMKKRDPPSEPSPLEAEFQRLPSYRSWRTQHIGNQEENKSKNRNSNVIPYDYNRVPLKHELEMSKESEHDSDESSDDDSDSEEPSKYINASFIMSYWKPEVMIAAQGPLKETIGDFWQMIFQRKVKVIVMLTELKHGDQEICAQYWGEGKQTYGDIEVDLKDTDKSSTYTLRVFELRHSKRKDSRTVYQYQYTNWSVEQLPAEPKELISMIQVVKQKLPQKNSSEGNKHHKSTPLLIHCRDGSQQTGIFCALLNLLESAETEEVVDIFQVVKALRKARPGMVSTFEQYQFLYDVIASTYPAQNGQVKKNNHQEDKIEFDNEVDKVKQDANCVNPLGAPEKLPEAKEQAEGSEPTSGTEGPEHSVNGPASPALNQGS
The experiment is described as follows: Inhibition of CD45.

Experiment [5] deals with Receptor-type tyrosine-protein phosphatase alpha (Homo sapiens) (UniProt P18433). Put plainly: Inhibition of PTPalpha at 100 uM.
Receptor-type tyrosine-protein phosphatase alpha (Homo sapiens), sequence (P18433 20-802 limits assumed): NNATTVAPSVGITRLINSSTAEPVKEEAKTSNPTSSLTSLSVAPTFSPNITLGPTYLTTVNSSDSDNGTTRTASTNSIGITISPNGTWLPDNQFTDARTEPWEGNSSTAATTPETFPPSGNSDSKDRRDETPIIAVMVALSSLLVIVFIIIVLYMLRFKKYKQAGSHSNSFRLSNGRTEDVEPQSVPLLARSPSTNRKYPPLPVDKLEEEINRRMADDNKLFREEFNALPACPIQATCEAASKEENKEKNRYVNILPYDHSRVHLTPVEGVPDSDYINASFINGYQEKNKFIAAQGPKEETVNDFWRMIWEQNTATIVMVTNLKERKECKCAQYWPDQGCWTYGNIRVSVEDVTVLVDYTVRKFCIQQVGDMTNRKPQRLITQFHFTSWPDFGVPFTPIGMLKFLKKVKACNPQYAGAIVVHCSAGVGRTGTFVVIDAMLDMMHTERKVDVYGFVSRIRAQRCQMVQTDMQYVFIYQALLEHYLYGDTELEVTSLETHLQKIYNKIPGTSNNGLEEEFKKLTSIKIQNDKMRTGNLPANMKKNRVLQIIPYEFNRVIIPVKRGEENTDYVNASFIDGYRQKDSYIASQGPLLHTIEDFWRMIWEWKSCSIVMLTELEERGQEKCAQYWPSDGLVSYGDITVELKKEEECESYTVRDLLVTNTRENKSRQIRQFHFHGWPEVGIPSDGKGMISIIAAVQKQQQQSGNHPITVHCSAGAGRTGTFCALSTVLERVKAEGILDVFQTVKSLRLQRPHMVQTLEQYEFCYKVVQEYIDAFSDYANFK
Experiment [6] concerns the target T3, Tyrosine-protein phosphatase non-receptor type 2 (Homo sapiens, UniProt P17706).
T3 sequence (P17706 whole entry): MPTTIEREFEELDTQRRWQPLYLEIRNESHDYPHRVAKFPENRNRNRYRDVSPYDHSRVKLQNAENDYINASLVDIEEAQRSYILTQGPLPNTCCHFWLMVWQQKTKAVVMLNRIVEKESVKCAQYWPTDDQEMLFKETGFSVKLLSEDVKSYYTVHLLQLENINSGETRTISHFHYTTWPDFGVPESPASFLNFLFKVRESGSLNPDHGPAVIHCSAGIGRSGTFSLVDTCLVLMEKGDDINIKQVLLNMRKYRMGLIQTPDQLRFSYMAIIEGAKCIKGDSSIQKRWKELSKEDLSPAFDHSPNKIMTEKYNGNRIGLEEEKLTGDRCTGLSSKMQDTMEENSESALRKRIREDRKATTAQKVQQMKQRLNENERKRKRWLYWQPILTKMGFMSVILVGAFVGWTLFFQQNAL
The experiment is described as follows: Inhibition of TC-PTP.

Experiment [7] has as its target T4, Dual specificity protein phosphatase 22 (Homo sapiens, UniProt Q9NRW4).
T4 sequence (Q9NRW4 whole entry): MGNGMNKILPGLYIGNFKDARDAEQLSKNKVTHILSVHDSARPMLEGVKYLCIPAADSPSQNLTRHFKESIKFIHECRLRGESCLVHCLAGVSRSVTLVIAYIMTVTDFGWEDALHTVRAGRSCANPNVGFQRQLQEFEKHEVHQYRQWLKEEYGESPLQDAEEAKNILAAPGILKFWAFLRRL
Put plainly: Inhibition of VHX.

In experiment [8] the target is T5, Tyrosine-protein phosphatase non-receptor type 22 (Homo sapiens) (UniProt Q9Y2R2).
T5 sequence (whole entry): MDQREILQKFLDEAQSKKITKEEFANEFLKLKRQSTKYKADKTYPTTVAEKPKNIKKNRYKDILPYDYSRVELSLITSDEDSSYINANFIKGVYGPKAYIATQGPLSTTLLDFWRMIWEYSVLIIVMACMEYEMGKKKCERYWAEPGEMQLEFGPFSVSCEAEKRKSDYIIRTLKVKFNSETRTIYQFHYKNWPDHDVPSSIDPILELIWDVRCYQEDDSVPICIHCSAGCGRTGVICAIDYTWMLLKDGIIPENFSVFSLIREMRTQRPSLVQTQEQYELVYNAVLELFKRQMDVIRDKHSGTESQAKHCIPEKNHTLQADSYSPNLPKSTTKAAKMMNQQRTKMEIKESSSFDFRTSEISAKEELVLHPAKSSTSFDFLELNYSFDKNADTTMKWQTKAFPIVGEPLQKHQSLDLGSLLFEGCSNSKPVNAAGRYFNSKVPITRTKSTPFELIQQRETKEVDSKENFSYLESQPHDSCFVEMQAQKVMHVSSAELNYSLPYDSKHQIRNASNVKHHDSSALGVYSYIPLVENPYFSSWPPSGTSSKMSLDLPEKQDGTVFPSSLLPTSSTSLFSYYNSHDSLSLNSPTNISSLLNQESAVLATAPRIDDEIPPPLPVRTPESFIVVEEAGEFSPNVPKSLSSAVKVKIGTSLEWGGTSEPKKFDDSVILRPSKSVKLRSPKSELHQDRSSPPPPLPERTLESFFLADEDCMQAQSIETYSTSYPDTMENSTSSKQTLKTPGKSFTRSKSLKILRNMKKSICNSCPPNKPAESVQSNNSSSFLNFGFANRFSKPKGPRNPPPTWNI
The experiment is described as follows: Inhibition of LYP at 100 uM.

As usually defined, the IC50 is the concentration at which inhibition is half-maximal. Higher therefore signals weaker potency. As for `Cc1cc(S(=O)(=O)O)c(S(=O)(=O)O)cc1N1N=C(C(=O)O)CC1=O`, the inhibition entry in experiment [1], in experiment [5] and in experiment [8] was “inactive” each time. For the same compound, the IC50 in experiment [2] was above 100 µM; in experiment [3], 14 µM; in experiment [4], above 100 µM; in experiment [6], above 100 µM; in experiment [7], above 100 µM.
